Experimental data from patent US20120276047A1, “FUSED TRICYCLIC COMPOUNDS AND DERIVATIVES THEREOF USEFUL FOR THE TREATMENT OF VIRAL DISEASES” (priority 2009, published 2012).
pEC50: −log10 of the molar value.

System: HCV replicon cells
Experiment: Cell-based HCV replicon assay
Settings: Hepatitis C virus, 72 h; replicon RNA level by real time PCR (Taqman), cells harvested on day 3; EC50 = concentration to achieve ΔCT=1 over baseline
Procedure: To measure cell-based anti-HCV activity of selected compounds of the present invention, replicon cells were seeded at 5000 cells/well in 96-well collagen I-coated Nunc plates in the presence of the test compound. Various concentrations of test compound, typically in 10 serial 2-fold dilutions, were added to the assay mixture, with the starting concentration ranging from 250 μM to 1 μM. The final concentration of DMSO was 0.5%, fetal bovine serum was 5%, in the assay media. Cells were harvested on day 3 by the addition of 1× cell lysis buffer (Ambion cat #8721). The replicon RNA level was measured using real time PCR (Taqman assay). The amplicon was located in 5B. The PCR primers were: 5B.2F, ATGGACAGGCGCCCTGA; 5B.2R, […]; the probe sequence was FAM-labeled CACGCCATGCGCTGCGG. GAPDH RNA was used as endogenous control and was amplified in the same reaction as NS5B (multiplex PCR) using primers and VIC-labeled probe recommended by the manufacturer (PE Applied Biosystem). […] Alternatively, to quantitate the absolute amount of replicon RNA, a standard curve was established by including serially diluted T7 transcripts of replicon RNA in the Taqman assay. […]

`COC(=O)N[C@@H](C(=O)N1CCC[C@H]1c1nc2ccc3cc(-c4ccc5c(ccc6nc([C@@H]7CCCN7C(=O)[C@H](NC(=O)OC)C(C)C)[nH]c65)n4)ccc3c2[nH]1)C(C)C` [Compound 1] was tested, and the pEC50 was over 9.00.
